Experimental findings from US11015200B2, “Antisense-induced exon exclusion in myostatin” (Sarepta Therapeutics, Inc., priority 2015, dated 2021) are described below.

The subject of data set [1] is exon 2 of the human myostatin gene (huMSTN). Kind of data set: Exon 2 skipping by RT-PCR in nucleofected human rhabdomyosarcoma (RD) cells. The format is cell-based. As to conditions: second series (FIG. 4); RD cells nucleofected with PMO at 10, 3, 1, 0.3 μM, overnight; concentration inducing 50% exon skipping; * = ambiguous fit on non-linear regression. The method, then: (§1) In vitro experiments were performed to investigate the ability of antisense oligonucleotides designed and prepared as described above to decrease the expression of exon 2 containing myostatin pre-mRNA. Both human rhabdomyosarcoma cells (RD cells; ATCC CCL-136) and primary human myoblasts were used in the experiments as noted. RD cells or primary human skeletal myoblasts were nucleofected with PMOs at 10, 3, 1 and 0.3 μM in SG or P3 nucleofector solution, respectively, and incubated overnight at 37° C. with 5% CO2. Total RNA was isolated from the cells and RT-PCR was performed using primers Myostatin EX1 Fwd (5′ […] SEQ ID NO: 48) and Myostatin EX3 Rev (5′ […] SEQ ID NO: 49). Amplified samples were analyzed using the LabChip Caliper to determine percent exon 2 skipping. EC50 values were determined using non-linear regression analysis in GraphPad Prism. EC50 values represent the concentration at which the test PMO induces 50% exon skipping.

Data set [2] shares this test system. Kind of data set: Exon 2 skipping by RT-PCR in nucleofected primary human myoblasts. The format is cell-based. As to conditions: first series (FIG. 3); primary human myoblasts nucleofected with PMO at 10, 3, 1, 0.3 μM, overnight; concentration inducing 50% exon skipping. The method, then: as §1

{TEG} = triethylene glycol spacer

With “muhuMSTN-SD2(+18 − 07): PMO, 5′ TEG, 3′ H; targeting sequence CACTTACCAGCCCATCTTCTCCTGG (all phosphorodiamidate morpholino (PMO), 5' {TEG})”, the results for the EC50 in data set [1] and in data set [2] were 1290 nM and 3.88 µM, respectively.
